# Test results reported in US10799600B1, “Targeted nanoparticles” (nanoDERM Sciences, Inc., priority 2010, dated 2020).
# Tests used:
# [1] = test system: multi-drug resistant (and expanded-spectrum beta-lactamase resistant) Acinetobacter baumannii (BAA-1605); assay: Clearing zone test on tryptic soy agar against multi-drug resistant Acinetobacter baumannii; assay type: cell-based; conditions: for resistance / sensitivity to control antibiotics: clinically relevant dose 10 μg/ml, A. baumannii
# Protocol: (§1) FIG. 7 nanogels conjugated with polymyxin B (PmxnB) or vancomycin (VCM) and/or loaded with 5 mg/nil penicillin/streptomycin (Pen/Strep), and tested on tryptic soy agar for activity against multi-drug resistant (and expanded-spectrum beta-lactamase resistant) Acinetobacter baumannii (BAA-1605). (1) unmodified particle, Pen/Strep loaded; (2) unmodified particle; (3) Pen-Strep loaded and conjugated with PmxnB; (4) conjugated with PmxnB; (5) conjugated with VCM, Pen-Strep loaded; (6) conjugated with VCM; (7) conjugated with PmxnB/AMCA, Pen/Strep loaded; (8) conjugated with PmxnB/AMCA (fluorescent agent); (9) conjugated with VCM/AMCA, Pen/Strep loaded; (10) conjugated with VCM/AMCA; (11) PmxnB at 5 mg/ml; (12) VCM at 5 mg/ml; (13) Pen/Strep at 5 mg/ml; (14) PmxnB at 100 μg/ml; (15) VCM at 100 μg/ml; (16) Pen/Strep at 100 μg/ml; (17) PmxnB at 10 μg/ml; (18) VCM at 10 μg/ml; (19) Pen/Strep at 10 μg/ml.
# (§2) Acinetobacter baumannii (a) treated with the hydrogel conjugated with polymyxin B (PMB) produced a clearing zone of ˜15 mm in diameter. […] Methicillin-resistant S. aureus (MRSA) (b) treated with VCM-conjugated particles produced a clearing zone of ˜15 mm in diameter.
# (§3) The concept for targeted killing of bacterial pathogens with the hydrogels of the invention is illustrated in FIG. 1.
# [2] = test system: multi-drug resistant (MRSA) Staphylococcus aureus (NRS-385); assay: Clearing zone test on tryptic soy agar against MRSA; assay type: cell-based; conditions: for resistance / sensitivity to control antibiotics: clinically relevant dose 10 μg/ml
# Protocol: as §1, with “FIG. 8 nanogels conjugated” for “FIG. 7 nanogels conjugated”, “with 5 mg/ml penicillin/streptomycin (Pen/Strep),” for “with 5 mg/nil penicillin/streptomycin (Pen/Strep),”, “multi-drug resistant (MRSA) Staphylococcus aureus (NRS-385). (1) unmodified” for “multi-drug resistant (and expanded-spectrum beta-lactamase resistant) Acinetobacter baumannii (BAA-1605). (1) unmodified”, “at 5 mg/nil; (14) PmxnB” for “at 5 mg/ml; (14) PmxnB”
# as §2, §3
Compound,resistance / sensitivity to control antibiotics [1],"inhibition (clearing zone) ([1]; free control antibiotics (10 μg/ml), MDR A. baumannii)",resistance / sensitivity to control antibiotics [2],clearing zone ([2]; free antibiotic 10 μg/ml) [mm],"clearing zone ([1]; free antibiotic 10 μg/ml, MDR A. baumannii) [mm]",inhibition (clearing zone) ([2]; free control antibiotics at 10 μg/ml)
"CN[C@H](CC(C)C)C(=O)N[C@H]1C(=O)N[C@@H](CC(N)=O)C(=O)N[C@H]2C(=O)N[C@H]3C(=O)N[C@H](C(=O)N[C@H](C(=O)O)c4cc(O)cc(O)c4-c4cc3ccc4O)[C@H](O)c3ccc(c(Cl)c3)Oc3cc2cc(c3O[C@@H]2O[C@H](CO)[C@@H](O)[C@H](O)[C@H]2O[C@H]2C[C@](C)(N)[C@H](O)[C@H](C)O2)Oc2ccc(cc2Cl)[C@H]1O [Free VCM, Vancomycin]",resistant,no inhibition,sensitive,~6,,
polymyxin B [Free PMB],sensitive,,resistant,,~6,no inhibition
